From patent US7803364B2, “Multipotent neural stem cells” (The Cleveland Clinic Foundation, priority 2005, dated 2010)

Columns and labels:
[1] = test system: βT4 secondary neurospheres; test: Secondary βT4 neurosphere differentiation into TuJ1-positive neurons and O4-positive oligodendrocytes; type: cell-based, rat; conditions: PDGF-A alone or in combination with SHH
Text: With this assay, we will determine whether growth factors or secreted products from activated immune cells affect βT4 neurosphere behavior. Using standard neurosphere medium and N2 only medium as positive and negative controls for cell growth, we tested the effects of two concentrations of sonic hedgehog on oligodendrocyte and neuron production.
If βT4 cells represent a CNS stem cell, growth factors should induce βT4 cell division and regulate the production of mature CNS cells. […]
Undissociated secondary neurospheres were plated onto PLL-coated coverslips and analyzed at either 24 hours or 7 days in vitro with DMEM/F12, Glutamax and Penicillin-Streptomycin (1%, Cellgro) with different supplements as follows: N2 (1%); N2 (1%) plus sonic hedgehog (SHH, 1000 ng/ml, R&D, Minneapolis, Minn.); “neurosphere medium” (N2 (1%), EGF (20 ng/ml), FGF2, 20 ng/ml).
βT4 positive cell percentage in control and Ara-C-treated cultures were quantified by counting 10 randomly selected fields using standard fluorescence microscopy and a 20× objective. βT4 positive primary neurosphere and secondary neurosphere percentage were quantified by counting 10 randomly selected fields using a 10× objective. […]

[2] = test system: βT4 cells in neurospheres from P4 rat brain lateral ventricle; test: Ara-C enrichment of βT4 cells in neurosphere cultures; type: cell-based
Text: We developed in vitro methods to study and enrich for βT4 cells. We harvested the lateral and medial wall of the lateral ventricles from P4 rat brain. As shown schematically in FIG. 12A, the tissue was dissociated into single cells and placed in neurosphere assay medium. Four days later, we attached the neurospheres to coverslips and stained for βT4. […] In an attempt to purify or enrich for βT4 cells, we treated P4 neurospheres (on coverslips) with cytosine-β-D-arabinofuranoside (Ara-C; for 4 days), which kills actively dividing cells. We dissociated the remaining cells and placed them in neurosphere-forming conditions for 4 days, plated the resulting neurospheres on coverslips and stained them for βIV tubulin.
The “dissociated” cultures had growth properties similar to the plated primary neurospheres.
Primary neurospheres, generated as described above, were dissociated with trypsin and trituration and then plated onto poly-L-lysine-coated (P-1274, Sigma) coverslips (10^5 cells/12 mm coverslip). The coverslips were incubated in neurosphere medium with cytoarabinoside-C (Ara-C, 10 μM, Sigma) for 4 days. Cells were detached from the coverslips by incubation on ice. […] The neurospheres resulting from these procedures are defined as secondary neurospheres and were analyzed by immunocytochemistry as described above or induced to differentiate.

Substance | effect on differentiation of secondary neurospheres [1] | enrichment in βT4 cells ([2]; Ara-C 4 days versus culture without Ara-C (0.03%)) | percent of cells in secondary neurospheres βT4-positive ([2]; secondary neurospheres made from Ara-C-resistant primary neurospheres)
PDGF-A: platelet-derived growth factor added alone or with SHH | had not effect on differentiation |  | 
cytosine-β-D-arabinofuranoside [Ara-C] |  | 2700 fold | > 83%
